The values below come from patent US20060014733A1, “Histamine-3 agonists and antagonists” (Pfizer Inc, priority 2004, published 2006).

The structures appear in SMILES notation.

T1 sequence (Q9QYN8 whole entry): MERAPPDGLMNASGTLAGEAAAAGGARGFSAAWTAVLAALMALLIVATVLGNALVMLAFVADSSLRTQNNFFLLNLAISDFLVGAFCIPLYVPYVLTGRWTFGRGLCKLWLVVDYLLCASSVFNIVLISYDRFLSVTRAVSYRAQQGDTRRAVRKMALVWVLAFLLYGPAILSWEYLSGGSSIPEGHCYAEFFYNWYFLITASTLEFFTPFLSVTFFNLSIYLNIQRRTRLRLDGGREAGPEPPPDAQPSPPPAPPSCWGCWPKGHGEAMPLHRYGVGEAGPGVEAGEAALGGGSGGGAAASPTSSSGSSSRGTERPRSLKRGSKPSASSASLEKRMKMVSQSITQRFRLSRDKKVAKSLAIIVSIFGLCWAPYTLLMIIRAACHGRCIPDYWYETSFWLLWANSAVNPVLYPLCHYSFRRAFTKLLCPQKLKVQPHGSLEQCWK

The experiment concerns the target T1, rat histamine H3 receptors (Rattus norvegicus, UniProt Q9QYN8).
T1 construct: Frozen rat frontal brain or frozen human post-mortem frontal brain is homogenized; from tissue; host or cells: rat frontal brain membranes
Description: Rat H3 binding (3H-N-methylhistamine displacement, rat frontal brain membranes). The settings on record: radioligand 1 nM 3H-N-methylhistamine, 1 hour incubation. How it is done: The in vitro affinity of the compounds in the present invention at the rat or human histamine H3 receptors can be determined according to the following procedure. Frozen rat frontal brain or frozen human post-mortem frontal brain is homogenized in 20 volumes of cold 50 mM Tris HCl containing 2 mM MgCl2 (pH to 7.4 at 4 degrees C.). The homogenate is then centrifuged at 45,000 G for 10 minutes. The supernatant is decanted and the membrane pellet re-suspended by Polytron in cold 50 mM Tris HCl containing 2 mM MgCl2 (pH to 7.4 at 4 degrees C.) and centrifuged again. The final pellet is re-suspended in 50 mM Tris HCl containing 2 mM MgCl2 (pH to 7.4 at 25 degrees C.) at a concentration of 12 mg/mL. Dilutions of compounds are made in 10% DMSO/50 mM Tris buffer (pH 7.4) (at 10×final concentration, so that the final DMSO concentration is 1%). Incubations are initiated by the addition of membranes (200 microliters) to 96 well V-bottom polypropylene plates containing 25 microliters of drug dilutions and 25 microliters of radioligand (1 nM final concentration ^3H-N-methylhistamine). After a 1 hour incubation, assay samples are rapidly filtered through Whatman GF/B filters and rinsed with ice-cold 50 mM Tris buffer (pH 7.4) using a Skatron cell harvester. Radioactivity is quantified using a BetaPlate scintillation counter.
A word on the Ki: it is a dissociation constant, usually derived from enzyme kinetics or from competition with a known ligand. High values mean lower affinity, low ones higher affinity. Compound `CC(=O)Nc1cccc(-c2ccc(CN3CC[C@H](N(C)C)C3)cc2)c1` [Example 44, (S)-N-[4′-(3-Dimethylamino-pyrrolidin-1-ylmethyl)-biphenyl-3-yl]-acetamide] had a Ki of 139 nM.
In the case of `CN(C)[C@H]1CCN(Cc2ccc(C3CCNCC3)cc2)C1` [Example 47] it was 33 nM.
The same measure for `CN(C)[C@@H]1CCN(Cc2ccc(C3CCNCC3)cc2)C1` [Example 46, (R)-[1-(4-piperidin-4-ylbenzyl)-pyrrolidin-3-yl]-dimethylamine]: 136 nM; for `CC(=O)Nc1cccc(-c2ccc(CN3CC[C@@H](N(C)C)C3)cc2)c1` [Example 45, (R)-N-[4′-(3-Dimethylamino-pyrrolidin-1-ylmethyl)-biphenyl-3-yl]-acetamide]: 75 nM; for `CN(C)[C@@H]1CCN(Cc2ccc(-c3ccc(S(C)(=O)=O)cc3)cc2)C1` [Example 43, (R)-[1-(4′-Methanesulfonyl-biphenyl-4-ylmethyl)-pyrrolidin-3-yl]-dimethylamine]: 72 nM.
As for `CN(C)[C@H]1CCN(Cc2ccc(-c3ccc(S(C)(=O)=O)cc3)cc2)C1` [Example 42, (S)-[1-(4′-Methanesulfonyl-biphenyl-4-ylmethyl)-pyrrolidin-3-yl]-dimethylamine], affinity was put at a Ki of 55 nM.
